From patent publication US20220354811A1, “METHODS AND COMPOSITIONS FOR MODULATING MACROPHAGES POLARIZATION” (INSERM (INSTITUT NATIONAL DE LA SANTÉ ET DE LA RECHERCHE …, priority 2019, published 2022)
Residues, ends and D or L forms follow the SMILES beside them. *: point of attachment. Cbz = O=C(OCc1ccccc1)*; CH2F = FC*

Legend:
caspase-8 = caspase-8 (Homo sapiens, UniProt Q14790); experiment: Recombinant caspase-8 activity in vitro (Ac-IETD-AMC substrate); type: biochemical; parameters: using active recombinant proteins of caspase-8 and caspase-3; purchased Enzo life sciences ALX-201-062; conditions: recombinant caspase-8, Ac-IETD-AMC
Source text: FIG. 4. […] (A) Measures of caspase-8 activity (IETD-AMC). IETD-CHO treatment is used as positive control in the in vitro assay. The results are expressed as A.U./min and represent the mean of 3 independent experiments realized in duplicate (B) Measures of caspase-3 activity (DEVD-AMC). DEVD-CHO is used as positive control in the in vitro assay. The results are expressed as A.U./min and represent the mean of 3 independent experiments realized in duplicate. Human CSF-1 was purchased from Miltenyi (130-096-493). […] Mouse caspase-8 was from R&D Systems (AF705). HRP-conjugated rabbit anti-goat was purchased from Dako ([…]) and HRP-conjugated goat anti-rabbit was from Cell Signaling (5127). Active recombinant caspase-8 (ALX-201-062) and -3 (ALX-201-059) were from Enzo life sciences. […] Each assay (in triplicate) was performed with 10 μg of protein prepared from control or stimulated cells. […] Enzyme activities were expressed in arbitrary units (A.U.) per min and per mg of proteins. The same protocol was used with 0.25 units of active recombinant caspase-8 (Enzo, ALX-201-062) or -3 (Enzo, ALX-201-059) in each triplicate.

human primary monocytes = conditions: literature (Jacquel et al., Blood 2009, Sci Reports 2018); cited from earlier work

Chain of caspase-8 (Q14790 217-374 limits assumed): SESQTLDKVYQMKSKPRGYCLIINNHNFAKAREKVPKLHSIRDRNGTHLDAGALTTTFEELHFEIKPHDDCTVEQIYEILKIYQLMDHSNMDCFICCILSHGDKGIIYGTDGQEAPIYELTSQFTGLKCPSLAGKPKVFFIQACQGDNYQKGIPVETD
Chain of caspase-8 (Q14790 385-479 limits assumed): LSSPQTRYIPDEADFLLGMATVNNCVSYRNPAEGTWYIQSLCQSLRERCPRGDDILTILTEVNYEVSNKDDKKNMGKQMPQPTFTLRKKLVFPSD

Question: For CC[C@H](C)[C@H](NC(C)=O)C(=O)N[C@@H](CCC(=O)O)C(=O)N[C@H](C(=O)N[C@H](C=O)CC(=O)O)[C@@H](C)O [Ac-IETD-CHO] (Ac-IETD-aldehyde), which IC50 (caspase-8) is on record?
Answer: Its IC50 is 15 nM.

Question: Which “effect on CSF-1-induced monocyte differentiation” value (human primary monocytes) does the source give for COC(=O)C[C@H](NC(=O)[C@H](C)NC(=O)[C@@H](NC(=O)OCc1ccccc1)C(C)C)C(=O)CF [z-VAD-fmk] (Cbz-Val-Ala-Asp(OMe)-CH2F) here?
Answer: The value was “inhibits”.
